Assay results published in US20190365744A1, “IMPROVED MULTI TYROSINE KINASE INHIBITOR THERAPY” (FRAUNHOFER-GESELLSCHAFT ZUR FORDERUNG DER ANGEWANDTEN …, priority 2017, published 2019).

Tested on: CXCR4
Experiment: CXCR4 PET/CT with tracer 68Ga-Pentixafor in patients with idiopathic pulmonary fibrosis, prior to and under therapy
Format: in vivo, human
Settings: for CXCR4 signal (PET/CT): patients with idiopathic pulmonary fibrosis, after onset of therapy vs prior to therapy, 68Ga-Pentixafor tracer
Protocol: Patients were diagnosed with clinical idiopathic pulmonary fibrosis according to diagnostic criteria of the American Thoracic Society/European Respiratory Society.
Pentixafor synthesis. Material for synthesis of ^68Ga-pentixafor (CPCR4.2) was provided by Scintomics (Fürstenfeldbruck, Germany) Synthesis was performed as previously described (18, 19), using a ^68Ge/^68Ga-generator (Eckert&Ziegler, Braunschweig, Germany) connected to a Scintomics GRP synthesis module.
Clinical Imaging. All studies were obtained on a dedicated PET/CT system (Biograph mCT 128 Flow; Siemens, Knoxville, USA), equipped with an extended field-of-view LSO PET component, a 128-slice spiral CT component, and a magnetically driven table optimized for continuous scanning The patients received an intravenous injection of 110 (IQR, 80-120) MBq of ^68Ga-pentixafor. Imaging started with a low-dose non-enhanced helical CT (120 kV, mA modulated, pitch 1.2, reconstructed axial slice thickness 5.0 mm) performed for attenuation correction of PET acquisitions. PET images of the whole body were then acquired using continuous bed motion (CBM) at a speed of 2.0 mm/s for head and neck and 0.5 mm/s for chest and abdomen at 60 min post injection. All studies were reconstructed using time-of-flight and point-spread function information combined with an iterative algorithm (Ultra HD®, Siemens Healthcare; 2 iterations, 21 subsets, matrix 200; zoom 1.0; Gaussian filter of 5.0). In addition, a non-contrast breath-hold high-resolution CT (HRCT) (120 kV, mA modulated) of the chest was used to obtain contiguous 1.0-mm cross-sectional slices throughout the thorax.
PET/CT image analysis. Transaxial PET, CT and fused PET/CT 68Ga-pentixafor PET/CT images were analyzed on a dedicated workstation equipped with a commercial software package (syngo.via; Siemens Healthcare).
PET images were visually evaluated for the presence of elevated radiotracer uptake in lung parenchyma in areas of usual interstitial pneumonia (UIP) pattern on CT. Then, ^68Ga-Pentixafor uptake was quantified using a 3D Volume-of-Interest (VOI) technique with isocontour thresholding, yielding mean and peak standardized uptake values (SUVmean and SUVpeak). Separate measurements were performed in three subpleural regions in each lung lobe, and values for each region were then averaged for the subsequent statistical analysis. Tracer uptake in mediastinal and hilar lymph nodes was assessed in three thoracic lymph node stations using 3D VOIs with isocontour thresholding, and also averaged for the subsequent statistical analysis. In addition, tracer uptake (SUVmean) in spleen and bone marrow was […], recorded to evaluate systemic interactions.
Patients suffering from idiopathic pulmonary fibrosis were investigated for CXCR4 abundance by PET/CT using a CXCR4 tracer ^68Ga-Pentixafor as described.
The mean signal intensities (SUVmean) were determined in different regions, i.e. upper-, middle and lower fields. The volume of CXCR4-positive areas were determined and put into relation to the total volume of the respective areas. The extent of the fibrotic areas were judged in PET/CT and the SUVmean was determined for mediastinal lymph nodes, spleen and bone marrow.

SMILES | CXCR4 signal, single further patient (one of 5 analyzed patients under treatment) | CXCR4 signal intensity, single patient with familial idiopathic pulmonary fibrosis (one of 5 analyzed patients, unclear whether drug was taken on the day of investigation) | CXCR4 signal (PET/CT) | CXCR4 signal (PET/CT) (listed as Nitedanib) | patients showing a strong increase in CXCR4 signal intensity in the fibrotic areas in the lung (under treatment, these patients received 150 mg in the morning of the PET/CT day) | signal intensities for CXCR4 (cohort of 12 patients with idiopathic pulmonary fibrosis under treatment vs baseline) | strong increase of CXCR4 signal in pulmonary fibrotic areas (patients with idiopathic pulmonary fibrosis under treatment)
COC(=O)c1ccc2c(c1)NC(=O)/C2=C(\Nc1ccc(N(C)C(=O)CN2CCN(C)CC2)cc1)c1ccccc1 [Nintedanib] | constant | decrease | increase | significant increase | 3 out of 5 | – | –
Cc1ccc(=O)n(-c2ccccc2)c1 [Pirfenidone] | – | – | – | – | – | remained constant or even decreased | not observed
